What was measured:
[1] = target: T1, glucocorticoid receptor (GR) (Homo sapiens, UniProt P04150); assay: binding to recombinantly produced glucocorticoid receptor, Sf9 cytosol, [3H]-dexamethasone reference; settings: recombinant GR
T1 construct: made in house; host or cells: Sf9 cells infected with recombinant baculovirus (cytosol preparation)
T1 sequence (P04150 1-777): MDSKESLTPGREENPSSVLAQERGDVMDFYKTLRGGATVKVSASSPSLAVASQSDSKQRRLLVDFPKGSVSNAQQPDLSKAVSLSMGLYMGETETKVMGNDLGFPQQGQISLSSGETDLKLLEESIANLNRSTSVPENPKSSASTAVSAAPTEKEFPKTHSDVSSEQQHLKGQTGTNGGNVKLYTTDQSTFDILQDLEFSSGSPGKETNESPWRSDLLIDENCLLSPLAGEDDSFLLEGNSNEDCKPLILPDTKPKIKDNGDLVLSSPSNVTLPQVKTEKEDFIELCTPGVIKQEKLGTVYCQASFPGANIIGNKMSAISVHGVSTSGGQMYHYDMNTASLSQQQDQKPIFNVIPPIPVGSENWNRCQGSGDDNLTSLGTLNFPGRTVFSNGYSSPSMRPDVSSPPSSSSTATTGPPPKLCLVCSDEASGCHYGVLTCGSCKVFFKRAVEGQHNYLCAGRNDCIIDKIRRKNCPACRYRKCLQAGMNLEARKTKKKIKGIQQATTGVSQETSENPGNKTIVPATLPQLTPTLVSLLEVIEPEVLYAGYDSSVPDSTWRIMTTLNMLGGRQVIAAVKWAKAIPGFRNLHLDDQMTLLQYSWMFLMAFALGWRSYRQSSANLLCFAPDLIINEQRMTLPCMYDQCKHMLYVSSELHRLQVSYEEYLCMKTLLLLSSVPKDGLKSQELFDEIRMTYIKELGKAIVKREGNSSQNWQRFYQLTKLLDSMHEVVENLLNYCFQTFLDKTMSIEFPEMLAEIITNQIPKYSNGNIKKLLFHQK
Description: (§1) The binding of the substances to the glucocorticoid receptor (GR) and other steroid hormone receptors (mineral corticoid receptor (MR), progesterone receptor (PR) and androgen receptor (AR)) is examined with the aid of recombinantly produced receptors. Cytosol preparations of Sf9 cells, which had been infected with recombinant baculoviruses, which code for the GR, are used for the binding studies. In comparison to reference substance [^3H]-dexamethasone, the substances show a high to very high affinity to GR. IC50(GR)=6.0 nM was thus measured for the compound from Example B7; IC50(MR), IC50(PR), IC50(AR)>1 μmol.

androgen receptor (AR) = target: T2, androgen receptor (AR) (Homo sapiens, UniProt P10275); assay: binding to recombinantly produced androgen receptor; settings: recombinant receptor
T2 construct: made in house
T2 sequence (P10275 1-920): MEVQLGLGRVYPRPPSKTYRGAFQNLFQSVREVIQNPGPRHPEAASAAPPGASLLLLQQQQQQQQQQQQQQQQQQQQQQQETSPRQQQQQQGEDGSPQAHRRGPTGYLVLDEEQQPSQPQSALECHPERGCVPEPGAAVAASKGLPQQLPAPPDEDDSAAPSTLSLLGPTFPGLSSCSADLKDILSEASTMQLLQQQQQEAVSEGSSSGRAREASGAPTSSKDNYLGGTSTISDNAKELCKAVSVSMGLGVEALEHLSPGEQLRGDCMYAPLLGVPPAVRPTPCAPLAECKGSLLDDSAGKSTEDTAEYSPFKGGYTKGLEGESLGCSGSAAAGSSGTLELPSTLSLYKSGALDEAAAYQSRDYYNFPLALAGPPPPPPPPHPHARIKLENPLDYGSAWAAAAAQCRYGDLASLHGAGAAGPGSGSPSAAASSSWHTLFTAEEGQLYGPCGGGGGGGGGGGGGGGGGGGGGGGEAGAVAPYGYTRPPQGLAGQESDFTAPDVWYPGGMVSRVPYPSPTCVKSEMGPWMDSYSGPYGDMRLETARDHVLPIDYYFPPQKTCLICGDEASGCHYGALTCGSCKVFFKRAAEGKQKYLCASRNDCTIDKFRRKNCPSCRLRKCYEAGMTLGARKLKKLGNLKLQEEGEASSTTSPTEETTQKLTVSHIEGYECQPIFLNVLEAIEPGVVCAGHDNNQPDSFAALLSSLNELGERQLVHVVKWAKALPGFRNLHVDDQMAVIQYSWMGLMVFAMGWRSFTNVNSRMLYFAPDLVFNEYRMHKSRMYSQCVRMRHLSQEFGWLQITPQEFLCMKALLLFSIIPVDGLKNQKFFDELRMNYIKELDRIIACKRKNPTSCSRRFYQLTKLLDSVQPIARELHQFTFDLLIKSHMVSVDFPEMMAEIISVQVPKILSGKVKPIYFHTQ
Description: as §1

[2] = target: T3, mineral corticoid receptor (MR) (Homo sapiens, UniProt P08235); assay: binding to recombinantly produced mineral corticoid receptor; settings: recombinant receptor
T3 construct: made in house
T3 sequence (P08235 1-984): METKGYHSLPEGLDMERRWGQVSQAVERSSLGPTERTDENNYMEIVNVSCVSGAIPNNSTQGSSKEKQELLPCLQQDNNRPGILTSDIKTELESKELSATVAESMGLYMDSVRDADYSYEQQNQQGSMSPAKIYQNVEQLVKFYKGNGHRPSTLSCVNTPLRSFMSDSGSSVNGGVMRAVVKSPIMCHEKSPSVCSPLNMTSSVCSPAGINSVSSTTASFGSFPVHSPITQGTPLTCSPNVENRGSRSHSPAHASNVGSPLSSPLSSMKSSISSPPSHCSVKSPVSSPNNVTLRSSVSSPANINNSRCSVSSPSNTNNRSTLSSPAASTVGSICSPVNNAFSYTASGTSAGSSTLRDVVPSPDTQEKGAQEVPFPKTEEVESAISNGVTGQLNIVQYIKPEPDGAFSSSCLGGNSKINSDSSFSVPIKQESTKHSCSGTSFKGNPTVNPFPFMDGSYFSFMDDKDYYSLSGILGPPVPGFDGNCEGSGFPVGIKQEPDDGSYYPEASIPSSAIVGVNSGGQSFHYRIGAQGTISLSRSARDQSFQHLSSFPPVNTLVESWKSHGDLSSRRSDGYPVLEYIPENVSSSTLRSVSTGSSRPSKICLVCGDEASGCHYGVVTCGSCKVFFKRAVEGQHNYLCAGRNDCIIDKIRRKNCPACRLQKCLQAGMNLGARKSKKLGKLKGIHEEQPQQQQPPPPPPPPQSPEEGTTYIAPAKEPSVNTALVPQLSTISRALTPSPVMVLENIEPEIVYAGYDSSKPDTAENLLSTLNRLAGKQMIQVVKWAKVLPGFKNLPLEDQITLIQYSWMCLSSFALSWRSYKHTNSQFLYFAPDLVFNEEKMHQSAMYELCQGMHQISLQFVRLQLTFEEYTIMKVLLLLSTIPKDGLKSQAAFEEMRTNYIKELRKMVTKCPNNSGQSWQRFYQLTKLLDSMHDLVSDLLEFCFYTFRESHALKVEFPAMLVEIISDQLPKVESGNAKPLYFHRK
Description: as §1

[3] = test system: secretion of cytokine IL-8 in human monocyte cell line THP-1; assay: inhibition of LPS-triggered IL-8 secretion in THP-1 cells (ELISA); type: cell-based
Description: The concentration of the cytokines was determined in the supernatant by means of commercially available ELISA kits.

[4] = target: T4, progesterone receptor (PR) (Homo sapiens, UniProt P06401); assay: binding to recombinantly produced progesterone receptor; settings: recombinant receptor
T4 construct: made in house
T4 sequence (P06401 1-933): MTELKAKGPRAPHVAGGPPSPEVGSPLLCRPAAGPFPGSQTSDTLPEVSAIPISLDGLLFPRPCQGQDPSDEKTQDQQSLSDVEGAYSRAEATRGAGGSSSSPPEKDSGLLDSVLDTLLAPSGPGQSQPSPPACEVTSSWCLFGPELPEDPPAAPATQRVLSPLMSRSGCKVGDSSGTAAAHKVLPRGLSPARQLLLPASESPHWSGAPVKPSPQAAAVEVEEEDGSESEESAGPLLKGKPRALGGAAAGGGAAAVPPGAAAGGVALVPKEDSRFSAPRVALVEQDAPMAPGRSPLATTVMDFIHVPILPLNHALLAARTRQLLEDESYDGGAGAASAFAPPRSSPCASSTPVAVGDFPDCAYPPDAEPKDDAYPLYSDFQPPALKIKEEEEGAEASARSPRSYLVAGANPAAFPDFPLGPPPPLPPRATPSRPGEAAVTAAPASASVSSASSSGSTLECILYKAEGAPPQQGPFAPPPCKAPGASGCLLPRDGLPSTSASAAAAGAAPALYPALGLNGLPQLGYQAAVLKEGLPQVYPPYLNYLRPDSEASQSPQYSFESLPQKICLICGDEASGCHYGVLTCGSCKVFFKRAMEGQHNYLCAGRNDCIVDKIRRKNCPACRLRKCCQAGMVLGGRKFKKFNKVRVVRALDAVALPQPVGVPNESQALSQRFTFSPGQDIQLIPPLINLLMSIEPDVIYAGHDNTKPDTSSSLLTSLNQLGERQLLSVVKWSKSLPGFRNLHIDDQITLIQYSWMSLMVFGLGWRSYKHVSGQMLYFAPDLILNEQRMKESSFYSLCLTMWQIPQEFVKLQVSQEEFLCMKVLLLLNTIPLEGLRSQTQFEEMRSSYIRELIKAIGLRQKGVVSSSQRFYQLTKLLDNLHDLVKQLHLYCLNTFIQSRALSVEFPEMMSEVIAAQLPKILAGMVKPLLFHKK
Description: as §1

IC50 [1]: 6 nM
IC50 (androgen receptor (AR)): > 1000 nM
IC50 [2]: > 1000 nM
IC50 ([3]; Homo sapiens, THP-1, supernatant ELISA, read-out: IC50(IL8)): 0.72 nM
IC50 [4]: > 1000 nM
SMILES: CC(C)(CC(O)(CNc1cccc2c1cnn2-c1ccc(F)nc1)C(F)(F)F)c1cc(F)ccc1O (stereo not drawn) [Example B7, 4-(5-Fluoro-2-hydroxyphenyl)-4-methyl-1-{[1-(6-fluoropyridin-3-yl)indazol-4-yl]amino}-2-(trifluoromethyl)pentan-2-ol]
eff. relative to dexamethasone (IL-8 inhibition) ([3]; THP-1): 97%
